Data as given in article PMC12700550, “DLL4^+ neutrophils promote Notch1-mediated endothelial PANoptosis to exacerbate acute lung injury in sepsis” (The Journal of Clinical Investigation, 2025).
Values joined by “and” are separate entries in the source; they are usually repeats but may differ in a detail not shown here. Equal entries are not always repeated.

Tested on: C57BL/6 mice, CLP sepsis
Experiment: Serum aspartate aminotransferase (AST), CLP mice
Format: in vivo, mouse
Set-up: serum AST (Figure 6B): unit not given here
Details: 20 h; for serum AST (Figure 6B): 10 mg/kg NDI, individual mice
Experimental: Sepsis was induced in mice by cecal ligation and puncture (CLP) as described previously ([45], [46]). Mice were anesthetized with isoflurane to a surgical plane and placed in a supine position. CLP was performed through a midline laparotomy. The abdomen was shaved and disinfected. Through a 2 cm midline incision, the cecum was exposed and then ligated with a 4-0 silk suture 1 cm proximal from the distal cecal extremity. […] A small amount of cecal content was extruded through both holes, and the ligated cecum was returned to the peritoneal cavity. The wound was closed in layers. […] A small amount of cecal content was extruded. […] Vehicle groups received an equivalent volume of PBS, while treatment groups received NDI 10 mg/kg in […] PBS via retro-orbital injection after CLP. This dose was chosen primarily on the basis of our laboratory’s prior experience, we have consistently used this dose in mouse CLP models with reproducible efficacy and without observable toxicity ([39], [44]). Sham-operated animals underwent a laparotomy without CLP. After closure, the mice received a subcutaneous injection of 0.5 mL of normal saline to overcome surgery-induced dehydration. […] All mice were subcutaneously injected with a single dose of 0.1 mg/kg buprenorphine after CLP. Serum levels of alanine aminotransferase, aspartate aminotransferase, and lactate dehydrogenase were determined using specific colorimetric enzymatic assays (Pointe Scientific Inc.) according to the manufacturer’s instructions.

Question: Which “effect on serum AST” value (DLL4^+ neutrophil-injected CLP mice, 10 mg/kg) does the source give for ECAGSPCHNGGTCEDGI [NDI] here?
Answer: The value was “significantly reduced the serum levels of hepatic and cell injury markers and proinflammatory cytokines”.

Question: What about the “serum AST (Figure 6B)” value (DLL4^+ neutrophils + CLP) of the same sequence?
Answer: Its value is 63.648 and 54.808 and 59.67 and 72.046 and 53.04 and 50.83 and 58.786 and 52.156 and 37.57 and 64.974 and 46.852 and 66.3 and 46.41 and 34.918 and 42.432 and 51.272.

Question: What about the “serum AST (Figure 6B)” value (DLL4^– neutrophils + CLP) of the same sequence?
Answer: The value was 66.3 and 67.184 and 102.102 and 72.046 and 55.25 and 53.482 and 43.758 and 50.83.
